Source: patent US20240189287A1, “PERIPHERALLY RESTRICTED CB1 RECEPTOR BLOCKERS AND USES THEREOF” (BIONANOSIM (BNS) LTD, priority 2021, published 2024)
Read-outs that look alike come from different tables or passages of the source.

Columns and labels:
CB1 receptor [1] = molecular target: T1, CB1 receptor (Mus musculus (Mouse), UniProt P47746); assay: CB1 receptor radioligand binding assay, [3H]CP-55,940 displacement, mouse brain membranes; conditions: mouse (m) CB1 receptor; read-out: CB1R Ki (nM) (m)
Experimental: (§1) Radioligand binding assays: Binding affinity was determined by a radioligand binding assay. The different BB8-conjugates binding to CB1 and CB2 receptors was assessed in competition displacement assays using [^3H]CP-55.940 as the radioligand and crude membranes from mouse brain for CB1 receptor and human kidney cells for CB2 receptor.
CB1 receptor binding assay: Mouse brain membranes were used as the source material for CB1 receptors. The displacement of specifically bound tritiated CP-55.940 from these membranes using a standard filtration assay was used to determine the Ki values for the test compounds. Briefly. 20 μg of protein was incubated for 1 h at 30° C. in the presence of 0.5 nM [^3H]CP-55,940 and various concentrations (10^−5M-10^−11M) of test compound/control, final volume of 1 mL. The incubation was terminated by rapid filtration and washing, and the amount of specifically bound [^3H]CP-55,940 was determined. Briefly, membranes with bound [^3H]CP-55,940 were separated and washed from free ligand by vacuum filtration, adsorbing the membrane onto a Whatman glass microfiber filter paper ([…], Cat #1821271). Finally, the Whatman filter paper with adsorbed membranes was cut and placed in scintillation liquid (Ultima Gold) for 1 h at 25° C. followed by a β counter reading of bound [^3H]CP-55,940 radioligand. All data were in triplicates with Ki values determined using GraphPad Prism 7.02 analysis software. […] In some cases, membranes from human source were used to determine CB1 receptor binding affinity.

CB2 receptor = CB2 receptor (Homo sapiens (Human), UniProt P34972); assay: CB2 receptor radioligand binding assay, [3H]CP-55,940 displacement, human kidney membranes; conditions: for Ki: read-out: hCB2R Ki
Experimental: as §1
CB2 receptor binding assay: Human kidney membranes were used as the source material for CB2 receptors. The displacement of specifically bound tritiated CP-55,940 from these membranes using a standard filtration assay was used to determine the Ki values for the test compounds. Briefly, 1.25 μg of protein was incubated for 1.5 h at 30° C. in the presence of 0.5 nM [^3H]CP-55,940 and various concentrations (10^−5M-10^−11M) of test compound/control, final volume of 1 mL. The incubation was terminated by rapid filtration and washing, and the amount of specifically bound [^3H]CP-55,940 was determined. Briefly, membranes with bound [^3H]CP-55,940 were separated and washed from free ligand by vacuum filtration, adsorbing the membrane onto a Whatman glass microfiber filter paper ([…], Cat #1821271). Finally, the Whatman filter paper with adsorbed membranes was cut and placed in scintillation liquid (Ultima Gold) for 1 h at 25° C. followed by a β counter reading of bound [^3H]CP-55,940 radioligand. All data were in triplicates with Ki values determined using GraphPad Prism 7.02 analysis software.

CB1 receptor [2] = molecular target: T1, CB1 receptor; assay: [35S]GTPγS binding assay for CB1 receptor, mouse brain membranes; type: biochemical; conditions: nature of binding: agonist/antagonist/inverse agonist
Experimental: For CB1 receptor-mouse brains were dissected and P2 membranes prepared and resuspended at ˜2 μg protein/μL in 1 ml assay buffer (50 mM Tris HCl, 9 mM MgCl2, 0.2 mM EDTA, 150 mM NaCl; pH 7.4). Ligand-stimulated [^35S]GTPγS binding was assayed as described previously (Tam et al., JCI 2010). Briefly, membranes (10 μg protein) were incubated in assay buffer containing 100 μM GDP, 0.05 nM [^35S]GTPγS, test compounds at various concentrations (CP55940/Rimonabant as controls and test compounds for BB8 conjugates), and 1.4 mg/mL fatty acid-free BSA in siliconized glass tubes. Membranes with bound ligand ([^35S]GTPγS) were separated from free ligand by vacuum filtration and were analyzed using β counter as described above. Non-specific binding was determined using 10 μM GTPS (cold GTP). Basal binding was assayed in the absence of the tested compound and in the presence of GDP.

MDR1-MDCKII cells = assay: MDR1-MDCK II cell permeation assay (bi-directional permeability, P-gp efflux); type: in vitro ADME
Experimental: (§2) Test and reference compounds were diluted with transport buffer (HBSS with 10 mM Hepes, pH 7.4) from stock solution to a concentration of 2 μM (DMSO<1%) and applied to the apical or basolateral side of the cell monolayer. Permeation of the test compounds from A to B direction or B to A direction was determined in duplicate with/without P-gp inhibitor (GF120918, 10 μM). […] The plate was incubated for 2.5 hours in CO2 incubator at 37±1° C., with 5% CO2 at saturated humidity without shaking. In addition, the efflux ratio of each compound was also determined. Test and reference compounds were quantified by LC-MS/MS analysis based on the peak area ratio of analyte/IS.
(§3) The in vitro bi-directional permeability across MDR1-MDCKII cells including P-glycoprotein (Pgp, ABCB1) efflux in the presence and absence of a P-gp inhibitor is an indicator as to the tendency of an orally administered compound to penetrate the brain.

P-gp (MDR1, ABCB1) = assay: as above; type: in vitro ADME; conditions: dog; for Papp at 2.5 h, 2 μM: A to B
Experimental: as §2, §3

HepG2 Cells = assay: Cell Viability Assay in HepG2 Cells at 72 h; type: cell-based, human; conditions: HepG2, 72 h
Experimental: The liver plays a central role in transforming and clearing chemicals, and therefore is susceptible to toxicity of these agents. BNS808, BNS822 and other selected compounds were tested in the HepG2 assay using […] to evaluate cytotoxicity.

[3] = system: Salmonella typhimurium (TA98, TA100)
[4] = MDCK-MDR1, pH 7.4, with GF120918, 10 μM, efflux ratio in the presence of P-gp inhibitor GF120918, read-out: MDR1 B:A/A:B (+P-gp inhibitor)
[5] = MDCK-MDR1, pH 7.4, efflux ratio, without P-gp inhibitor, read-out: MDR1 B:A/A:B

T1 sequence (P47746 whole entry): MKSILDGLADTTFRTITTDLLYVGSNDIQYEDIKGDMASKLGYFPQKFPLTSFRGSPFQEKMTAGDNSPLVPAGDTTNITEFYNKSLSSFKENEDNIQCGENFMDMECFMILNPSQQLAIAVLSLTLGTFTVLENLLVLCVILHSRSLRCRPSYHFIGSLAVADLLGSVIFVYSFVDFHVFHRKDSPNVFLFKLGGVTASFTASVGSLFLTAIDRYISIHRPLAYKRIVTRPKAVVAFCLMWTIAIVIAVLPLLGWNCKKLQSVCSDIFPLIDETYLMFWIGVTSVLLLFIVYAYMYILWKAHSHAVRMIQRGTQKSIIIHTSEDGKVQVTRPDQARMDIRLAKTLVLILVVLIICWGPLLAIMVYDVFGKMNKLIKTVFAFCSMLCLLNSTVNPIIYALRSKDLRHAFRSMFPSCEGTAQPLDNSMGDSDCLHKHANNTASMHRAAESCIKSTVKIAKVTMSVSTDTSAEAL
Sequence of CB2 receptor (P34972 whole entry): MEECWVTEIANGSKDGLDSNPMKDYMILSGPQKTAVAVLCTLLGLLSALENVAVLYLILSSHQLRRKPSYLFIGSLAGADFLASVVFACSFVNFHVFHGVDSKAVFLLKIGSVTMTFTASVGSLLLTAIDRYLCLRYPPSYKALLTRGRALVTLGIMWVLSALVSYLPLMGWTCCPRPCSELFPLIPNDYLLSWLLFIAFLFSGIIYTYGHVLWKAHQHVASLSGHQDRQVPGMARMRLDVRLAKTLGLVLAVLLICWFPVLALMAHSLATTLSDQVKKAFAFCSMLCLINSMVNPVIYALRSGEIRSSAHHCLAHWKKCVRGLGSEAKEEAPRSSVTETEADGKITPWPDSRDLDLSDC

| Structure (SMILES) | Ki (CB1 receptor [1]) [nM] | mCB1R GTPγ[^35S] (activity) (CB1 receptor [2]) | Ki (CB2 receptor) [nM] | also measured |
| --- | --- | --- | --- | --- |
| CN[C@@H]1C[C@H]2O[C@@](C)([C@@H]1OC)n1c3ccccc3c3c4c(c5c6ccccc6n2c5c31)C(=O)NC4 [Staurosporine, reference compound] |  |  |  | IC50 (HepG2 Cells; read-out: Relative IC50): 60 nM |
| Nc1ccc2cc3ccccc3cc2c1 [2-Aminoanthracene, reference compound] |  |  |  | AMES result (positive/negative) ([3]; TA98, S9 yes): positive; AMES result (positive/negative) ([3]; TA100, S9 yes): positive |
| CCOC(=O)N1CCC(C(=O)NC2CCCOc3c2nn(-c2ccccc2Cl)c3-c2ccc(Cl)cc2)CC1 (stereo not drawn) [BNS816, Ethyl-4-((2-(2-chlorophenyl)-3-(4-chlorophenyl)-5,6,7,8-tetrahydro-2H-oxepino[3,2-c]pyrazol-8-yl)carbamoyl)piperidine-1-carboxylate] | 8.93 | Inverse Agonist | 1530 | P-gp substrate (MDR1-MDCKII cells): No; Rank Papp (MDR1-MDCKII cells): High; MDR1 B:A/A:B (MDR1-MDCKII cells; efflux ratio, without P-gp inhibitor): 0.77; efflux ratio at 2.5 h, 2 μM (P-gp (MDR1, ABCB1); [4]): 0.61; Papp at 2.5 h, 2 μM (P-gp (MDR1, ABCB1); MDCK-MDR1, pH 7.4): 6.99 ×10⁻⁶ cm/s |
| O=C(NC1CCCOc2c1nn(-c1ccccc1Cl)c2-c1ccc(Cl)cc1)c1ccccn1 (stereo not drawn) [BNS810, N-[2-(2-chlorophenyl)-3-(4-chlorophenyl)-5,6,7,8-tetrahydrooxepino[3,2-c]pyrazol-8-yl]pyridine-2-carboxamide] | 64.5 | Antagonist | 988 |  |
| O=C(NC1CCCOc2c1nn(-c1ccccc1Cl)c2-c1ccc(Cl)cc1)c1ccncc1 (stereo not drawn) [BNS812, N-[2-(2-chlorophenyl)-3-(4-chlorophenyl)-5,6,7,8-tetrahydrooxepino[3,2-c]pyrazol-8-yl]pyridine-4-carboxamide] | 16.3 | Antagonist | 1300 |  |
| O=C(NC1CCCOc2c1nn(-c1ccccc1Cl)c2-c1ccc(Cl)cc1)c1ccncn1 (stereo not drawn) [BNS811, N-[2-(2-chlorophenyl)-3-(4-chlorophenyl)-5,6,7,8-tetrahydrooxepino[3,2-c]pyrazol-8-yl]pyrimidine-4-carboxamide] | 65.6 | Antagonist | 963 |  |
| O=[N+]([O-])c1ccc2c(c1)Cc1ccccc1-2 [2-Nitroflurene, reference compound] |  |  |  | AMES result (positive/negative) ([3]; TA98, S9 no): positive |

More lines, main results first:

| Ki (CB1 receptor [1]) [nM] | mCB1R GTPγ[^35S] (activity) (CB1 receptor [2]) | Ki (CB2 receptor) [nM] | Structure (SMILES) | also measured |
| --- | --- | --- | --- | --- |
| 290 | Inverse Agonist |  | O=C(NC1CCCOc2c1nn(-c1ccccc1Cl)c2-c1ccc(Cl)cc1)C1CCN(C(=O)c2cccnc2)CC1 (stereo not drawn) [BNS817, N-[2-(2-chlorophenyl)-3-(4-chlorophenyl)-5,6,7,8-tetrahydrooxepino[3,2-c]pyrazol-8-yl]-1-(pyridine-3-carbonyl)piperidine-4-carboxamide] | hCB2R Ki (nM) (CB2 receptor): No binding; P-gp substrate (MDR1-MDCKII cells): P-gp substrates and Yes; Rank Papp (MDR1-MDCKII cells): High; efflux ratio at 2.5 h, 2 μM (P-gp (MDR1, ABCB1); [4]): 0.64; Papp at 2.5 h, 2 μM (P-gp (MDR1, ABCB1); MDCK-MDR1, pH 7.4): 8.09 ×10⁻⁶ cm/s; efflux ratio at 2.5 h, 2 μM (P-gp (MDR1, ABCB1); [5]): 1.92 |
| 922 |  |  | CNCC(=O)NC1CCCOc2c1nn(-c1ccccc1Cl)c2-c1ccc(Cl)cc1 (stereo not drawn) [BNS819, N-[2-(2-chlorophenyl)-3-(4-chlorophenyl)-5,6,7,8-tetrahydrooxepino[3,2-c]pyrazol-8-yl]-2-(methylamino)acetamide] |  |
| 1.6 | Antagonist | 127 | O=C(NC1CCCOc2c1nn(-c1ccccc1Cl)c2-c1ccc(Cl)cc1)C1CCN(S(=O)(=O)c2ccc(Cl)cc2)CC1 (stereo not drawn) [BNS825, N-[2-(2-chlorophenyl)-3-(4-chlorophenyl)-5,6,7,8-tetrahydrooxepino[3,2-c]pyrazol-8-yl]-1-(4-chlorophenyl)sulfonyl-piperidine-4-carboxamide] | IC50 (HepG2 Cells; Homo sapiens, read-out: Relative IC50): > 100000 nM |
| 1130 |  |  | CNC(=O)NC1CCCOc2c1nn(-c1ccccc1Cl)c2-c1ccc(Cl)cc1 (stereo not drawn) [BNS813, 1-[2-(2-chlorophenyl)-3-(4-chlorophenyl)-5,6,7,8-tetrahydrooxepino[3,2-c]pyrazol-8-yl]-3-methyl-urea] |  |
| 56.7 | Antagonist |  | CC(C)(Oc1ccc(C(=O)c2ccc(Cl)cc2)cc1)C(=O)NC1CCCOc2c1nn(-c1ccccc1Cl)c2-c1ccc(Cl)cc1 (stereo not drawn) [BNS823, 2-[4-(4-chlorobenzoyl)phenoxy]-N-[2-(2-chlorophenyl)-3-(4-chlorophenyl)-5,6,7,8-tetrahydrooxepino[3,2-c]pyrazol-8-yl]-2-methyl-propanamide] | hCB2R Ki (nM) (CB2 receptor): No binding; P-gp substrate (MDR1-MDCKII cells): No; Rank Papp (MDR1-MDCKII cells): Low; efflux ratio at 2.5 h, 2 μM (P-gp (MDR1, ABCB1); [4]): > 30.9; Papp at 2.5 h, 2 μM (P-gp (MDR1, ABCB1); MDCK-MDR1, pH 7.4): < 0.003 ×10⁻⁶ cm/s; efflux ratio at 2.5 h, 2 μM (P-gp (MDR1, ABCB1); [5]): > 27.9 |
| 1400 |  |  | O=C(NC1CCCOc2c1nn(-c1ccccc1Cl)c2-c1ccc(Cl)cc1)[C@@H]1CCCN1 (stereo partly drawn) [BNS821, (2S)—N-[2-(2-chlorophenyl)-3-(4-chlorophenyl)-5,6,7,8-tetrahydrooxepino[3,2-c]pyrazol-8-yl]pyrrolidine-2-carboxamide] |  |
| 18 | Antagonist | 6310 | CS(=O)(=O)N1CCC(C(=O)NC2CCCOc3c2nn(-c2ccccc2Cl)c3-c2ccc(Cl)cc2)CC1 (stereo not drawn) [BNS815, N-[2-(2-chlorophenyl)-3-(4-chlorophenyl)-5,6,7,8-tetrahydrooxepino[3,2-c]pyrazol-8-yl]-1-methylsulfonyl-piperidine-4-carboxamide] | P-gp substrate (MDR1-MDCKII cells): P-gp substrates and Yes; Rank Papp (MDR1-MDCKII cells): High; efflux ratio at 2.5 h, 2 μM (P-gp (MDR1, ABCB1); [4]): 0.63; Papp at 2.5 h, 2 μM (P-gp (MDR1, ABCB1); MDCK-MDR1, pH 7.4): 10.1 ×10⁻⁶ cm/s; IC50 (HepG2 Cells; read-out: Absolute IC50): 55900 nM |
| 456 |  |  | CS(=O)(=O)CC(=O)N1CCC(C(=O)NC2CCCOc3c2nn(-c2ccccc2Cl)c3-c2ccc(Cl)cc2)CC1 (stereo not drawn) [BNS824, N-[2-(2-chlorophenyl)-3-(4-chlorophenyl)-5,6,7,8-tetrahydrooxepino[3,2-c]pyrazol-8-yl]-1-(2-methylsulfonylacetyl)piperidine-4-carboxamide] |  |
| 877 |  |  | O=C(NC1CCCOc2c1nn(-c1ccccc1Cl)c2-c1ccc(Cl)cc1)[C@H]1CCCN1 (stereo partly drawn) [BNS820, (2R)—N-[2-(2-chlorophenyl)-3-(4-chlorophenyl)-5,6,7,8-tetrahydrooxepino[3,2-c]pyrazol-8-yl]pyrrolidine-2-carboxamide] |  |
